The structures appear in SMILES notation.

Assay [1] concerns the target T1, ΔεCT-F0F1 (F0F1 with C-terminal-truncated ε subunit) (Bacillus sp. PS3, UniProt P07677+P09219).
T1 construct: gene atpD; holo complex, ε lacks residues 83-133; derived from pTR19-ASDS, expressed in E. coli, DDM-solubilised, Ni-NTA purified, nucleotide-depleted; PS3 origin is judgement; with ATP synthase gamma chain; ATP synthase epsilon chain; ATP synthase subunit delta; ATP synthase subunit a; ATP synthase subunit b; ATP synthase subunit c
Briefly: cryo-EM structure. The note with it: unisite conditions (substoichiometric ATP with PEP / pyruvate kinase), 25 °C, pH 8.0; catalytic site of closed βTP. Type of assay: binding.

Assay [2] addresses T2, wt-F0F1 (wild-type F0F1-ATPase / ATP synthase) (Bacillus sp. PS3, UniProt P07677+P07678+P09219).
T2 construct: gene atpD; holo complex α3β3γ1ε1δ1a1b2c10 from pTR19-ASDS, expressed in E. coli DK8, DDM-solubilised, Ni-NTA purified, nucleotide-depleted; with ATP synthase gamma chain; ATP synthase epsilon chain; ATP synthase subunit delta; ATP synthase subunit a; ATP synthase subunit b; ATP synthase subunit c
Briefly: cryo-EM structure. The class given is binding.

Take `Nc1ncnc2c1ncn2[C@@H]1O[C@H](COP(=O)(O)OP(=O)(O)O)[C@@H](O)[C@H]1O` [ADP]: the cryo-EM structure result is “revealed a nucleotide density due to ADP at the catalytic site in βTP” in assay [1]; ““closed in βTP with ADP,” and “open in βDP with ADP”” in assay [2] (sample exposed to 4 mM ATPγS, catalytic βDP (ε down), βTP and βDP (ε up)).

On to `Nc1ncnc2c1ncn2[C@@H]1O[C@H](COP(=O)(O)OP(=O)(O)OP(O)(O)=S)[C@@H](O)[C@H]1O` [ATPγS], for which the cryo-EM structure entry in assay [2] (4 mM ATPγS, ε-down form: catalytic βE and βTP and noncatalytic α sites, also bound in the retracted ε subunit (second site), ε-up form: βE) is ““open in βE with ATPγS,” “closed in βTP with ATPγS,” and “closed in βDP with ADP”.

For the origin of these results see article PMC9896953, “Structural basis of unisite catalysis of bacterial F0F1-ATPase” (PNAS Nexus, 2022).
